Results as given in US12630511B2, “Benzamide derivative, preparation method therefor, and pharmaceutical composition comprising same as active ingredient for prevention or treatment of cancer” (KOREA RESEARCH INSTITUTE OF CHEMICAL TECHNOLOGY, priority 2019, dated 2026).
pIC50: −log10 of the molar value.

Experiments:
[1] = molecular target: T1, EGFR L858R/T790M/C797S mutant enzyme (Homo sapiens, UniProt P00533, C797S/L858R/T790M); assay: Inhibitory capacity against EGFR L858R/T790M/C797S mutant enzyme (Cisbio HTRF); assay type: biochemical; details: for pIC50: HTRF, 1 mM ATP, 37° C. for 2 hours, 7 concentrations
T1 construct: purchased SignalChem
T1 sequence (P00533 25-1210 T790M/C797S/L858R): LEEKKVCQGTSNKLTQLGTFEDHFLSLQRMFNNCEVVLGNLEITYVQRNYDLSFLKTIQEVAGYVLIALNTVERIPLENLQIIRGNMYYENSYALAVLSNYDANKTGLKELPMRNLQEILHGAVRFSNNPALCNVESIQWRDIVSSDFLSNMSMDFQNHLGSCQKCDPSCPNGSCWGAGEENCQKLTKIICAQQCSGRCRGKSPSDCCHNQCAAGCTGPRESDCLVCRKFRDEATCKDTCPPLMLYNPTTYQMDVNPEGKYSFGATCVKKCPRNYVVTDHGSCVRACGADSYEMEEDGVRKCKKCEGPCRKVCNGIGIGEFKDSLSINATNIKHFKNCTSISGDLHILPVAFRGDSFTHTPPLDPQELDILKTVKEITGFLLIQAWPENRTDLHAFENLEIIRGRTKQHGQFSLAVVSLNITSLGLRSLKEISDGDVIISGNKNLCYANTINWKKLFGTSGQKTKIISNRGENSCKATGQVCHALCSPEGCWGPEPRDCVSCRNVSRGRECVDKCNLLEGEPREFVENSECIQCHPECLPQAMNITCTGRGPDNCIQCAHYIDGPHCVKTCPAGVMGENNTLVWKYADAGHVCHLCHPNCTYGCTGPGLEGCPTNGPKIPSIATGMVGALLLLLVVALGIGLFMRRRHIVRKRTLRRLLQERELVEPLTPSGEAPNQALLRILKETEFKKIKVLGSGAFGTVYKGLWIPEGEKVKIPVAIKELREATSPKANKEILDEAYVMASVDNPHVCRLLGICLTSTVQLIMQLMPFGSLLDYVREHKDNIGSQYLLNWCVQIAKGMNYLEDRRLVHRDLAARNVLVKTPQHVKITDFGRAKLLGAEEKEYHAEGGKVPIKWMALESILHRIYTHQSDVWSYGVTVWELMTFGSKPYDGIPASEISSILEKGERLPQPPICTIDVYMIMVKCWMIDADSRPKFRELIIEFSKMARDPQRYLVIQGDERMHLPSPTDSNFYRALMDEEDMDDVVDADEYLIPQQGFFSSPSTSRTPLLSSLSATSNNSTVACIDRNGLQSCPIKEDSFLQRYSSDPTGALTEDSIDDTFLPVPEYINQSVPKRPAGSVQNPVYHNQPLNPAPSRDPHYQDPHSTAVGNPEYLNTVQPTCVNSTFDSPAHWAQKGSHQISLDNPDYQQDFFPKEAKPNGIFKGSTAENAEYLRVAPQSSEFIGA
Method: Experimental Example 1: Measurement of Inhibitory Capacity Against EGFR L858R/T790M/C797S
In order to confirm the inhibitory capacity of the compounds prepared in Examples 1 to 13 provided in one aspect of the present invention against EGFR mutation, the following experiment was performed.
Particularly, the activity of the compounds of the present invention against EGFR mutant enzyme was measured using the HTRF system of Cisbio Co. As an EGFR L858R/T790M/C797S mutant enzyme, a protein provided by SignalChem was purchased and used as an enzyme source.
The composition of the assay buffer used for the activity measurement was as follows: 50 mM Tris-HCl (pH 7.5), 100 mM NaCl, 7.5 mM MgCl2, 3 mM KCl, 0.01% Tween 20, 0.1% BSA, and 1 mM DTT. Herein, an enzyme reaction was performed using a peptide substrate labeled with ATP at the concentration of 1 mM and biotin at the concentration of 0.5 μM. The analysis of the EGFR activity inhibitory effect of the compounds was performed according to the following analytical reaction recipe. • Component 1: 4 μl of EGFR mutant enzyme • Component 2: 2 μl of compound solution • Component 3: 4 μl of ATP and biotin-labeled peptide mixture
The enzyme reaction was initiated by mixing the component 1 and the component 2 first and then adding the component 3 thereto. After reacting the mixture at 37° C. for 2 hours, 10 μl of a measurement solution consisting of streptavidin-XL665 and europium-labeled anti-phosphotyrosine antibody provided by Cisbio was added to the enzyme reaction solution, followed by reaction at room temperature for 1 hour. Finally, the ratio of the fluorescence values at 615 nm and 665 nm was calculated using Envision equipment of Perkin-Elmer to quantitatively measure the enzyme activity and confirm the inhibitory ability of the compounds. The values measured at 7 concentrations of the compound were analyzed using Prism program (version 5.01, Graphpad Software, Inc.), and the IC50 value, an index of the inhibitory ability of the compound, was calculated.

[2] = tested on: Ba/F3 L858R/T790M/C797S (LTC) cells; assay: Anticancer activity in BaF3 cells overexpressing EGFR L858R/T790M/C797S (CellTiter-Glo), alone or combined with cetuximab; assay type: cell-based; details: cells overexpressed with EGFR L858R/T790M/C797S; combined with cetuximab; 72 hours; FIG. 1 and FIG. 2
Method: (§1) Experimental Example 2: Evaluation of Anticancer Activity in BaF3 Cells Overexpressed with Various EGFR Mutations
(§2) In order to confirm that the compound represented by formula 1 according to the present invention acted as an allosteric inhibitor against EGFR wild-type and mutants, the inhibitory effect on EGFR wild-type and mutants in Ba/F3 cell line was evaluated. In addition, in order to evaluate the cellular activity when the compound according to the present invention was co-administered with an existing drug, the cellular activity according to the combined administration was evaluated using Cetuximab used alone or in combination with chemotherapy in metastatic colorectal cancer and metastatic squamous head and neck cancer.
(§3) Particularly, the activity of the compound of the present invention against the wild-type and mutant Ba/F3 EGFR cell lines was measured as follows using the CellTiter-Glo system of Promega. […]
(§4) BaF3 cells were aliquoted in a 96 well cell culture plate at the density of 2500 cells/50 ul per well, to which 50 ul of the compound represented by formula 1 was treated at the concentrations of 0, 0.03, 0.1, 0.3, and 1 μM. […] Finally, the ratio of the fluorescence values at 570 nm was quantitatively measured using a luminometer, and the ability of the compound to inhibit cell viability was confirmed. […]

[3] = tested on: Ba/F3 EGFR L858R/T790M (LT) cells; assay: Anticancer activity in BaF3 cells overexpressing EGFR L858R/T790M (CellTiter-Glo), alone or combined with cetuximab; assay type: cell-based; details: cells overexpressed with EGFR L858R/T790M; combined with cetuximab; 72 hours; FIG. 1 and FIG. 2
Method: as §1, §2, §3, §4

NC1CCN(c2ccc(-c3cccc(C(=O)N[C@@H](c4cc5ccccc5[nH]4)c4cc(F)ccc4O)c3)cc2)CC1 [Example 3, (R)-4′-(4-aminopiperidine-1-yl)-N-((5-fluoro-2-hydroxyphenyl)(1H-indole-2-yl)methyl)-[1,1′-biphenyl]-3-carboxamide]
pIC50 [1]: 8.15
inhibitory capacity against EGFR L858R/T790M/C797S mutation (in words) ([1]; summary of Table 2): excellent inhibitory capacity
anticancer activity in combination with cetuximab (cell viability relative to cetuximab only) [2]: synergistic anticancer activity
anticancer activity in combination with cetuximab (cell viability relative to cetuximab only) [3]: synergistic anticancer activity

O=C(N[C@@H](c1cc2ccccc2[nH]1)c1cc(F)ccc1O)c1cccc(-c2ccc(N3CCCC3)cc2)c1 [Example 10, (R)—N-((5-fluoro-2-hydroxyphenyl)(1H-indole-2-yl)methyl)-4′-(pyrrolidine-1-yl)-[1,1′-biphenyl]-3-carboxamide]
pIC50 [1]: 5.23

NC1CCN(c2ccc(-c3cccc(C(=O)N[C@@H](c4cc5ccccc5[nH]4)c4cc(Cl)ccc4O)c3)cc2)CC1 [Example 4, (R)-4′-(4-aminopiperidine-1-yl)-N-((5-chloro-2-hydroxyphenyl)(1H-indole-2-yl)methyl)-[1,1′-biphenyl]-3-carboxamide]
pIC50 [1]: 6.19

CN(C)C1CCN(c2ccc(-c3cccc(C(=O)N[C@@H](c4cc5ccccc5[nH]4)c4cc(F)ccc4O)c3)cc2)CC1 [Example 7, (R)-4′-(4-(dimethylamino)piperidine-1-yl)-N-((5-fluoro-2-hydroxyphenyl)(1H-indole-2-yl)methyl)-[1,1′-biphenyl]-3-carboxamide]
pIC50 [1]: 6.80

N[C@@H]1CCN(c2ccc(-c3cccc(C(=O)N[C@@H](c4cc5ccccc5[nH]4)c4cc(F)ccc4O)c3)cc2)C1 [Example 11, 4′-((R)-3-aminopyrrolidine-1-yl)-N—((R)-(5-fluoro-2-hydroxyphenyl)(1H-indole-2-yl)methyl)-[1,1′-biphenyl]-3-carboxamide]
pIC50 [1]: 6.80

O=C(N[C@@H](c1cc2ccccc2[nH]1)c1cc(F)ccc1O)c1cccc(-c2ccc(N3CCC(N4CCNCC4)CC3)cc2)c1 [Example 6, (R)—N-((5-fluoro-2-hydroxyphenyl)(1H-indole-2-yl)methyl)-4′-(4-(piperazine-1-yl)piperidine-1-yl)-[1,1′-biphenyl]-3-carboxamide]
pIC50 [1]: 6.72

O=C(N[C@@H](c1cc2ccccc2[nH]1)c1cc(F)ccc1O)c1cccc(-c2ccc(N3CCN(C4CCNCC4)CC3)cc2)c1 [Example 8, (R)—N-((5-fluoro-2-hydroxyphenyl)(1H-indole-2-yl)methyl)-4′-(4-(piperidine-4-yl)piperazine-1-yl)-[1,1′-biphenyl]-3-carboxamide]
pIC50 [1]: 6.85

CN1CCC(N2CCN(c3ccc(-c4cccc(C(=O)N[C@@H](c5cc6ccccc6[nH]5)c5cc(F)ccc5O)c4)cc3)CC2)CC1 [Example 9, (R)—N-((5-fluoro-2-hydroxyphenyl)(1H-indole-2-yl)methyl)-4′-(4-(1-methylpiperidine-4-yl)piperazine-1-yl)-[1,1′-biphenyl]-3-carboxamide]
pIC50 [1]: 7.14

N[C@H]1CCN(c2ccc(-c3cccc(C(=O)N[C@@H](c4cc5ccccc5[nH]4)c4cc(Cl)ccc4O)c3)cc2)C1 [Example 13, 4′-((S)-3-aminopyrrolidine-1-yl)-N—((R)-(5-chloro-2-hydroxyphenyl)(1H-indole-2-yl)methyl)-[1,1′-biphenyl]-3-carboxamide]
pIC50 [1]: < 5.00

CN1CCN(C2CCN(c3ccc(-c4cccc(C(=O)N[C@@H](c5cc6ccccc6[nH]5)c5cc(F)ccc5O)c4)cc3)CC2)CC1 [Example 5, (R)—N-((5-fluoro-2-hydroxyphenyl)(1H-indole-2-yl)methyl)-4′-(4-(4-methylpiperazine-1-yl)piperidine-1-yl)-[1,1′-biphenyl]-3-carboxamide]
pIC50 [1]: 5.59

N[C@H]1CCN(c2ccc(-c3cccc(C(=O)N[C@@H](c4cc5ccccc5[nH]4)c4cc(F)ccc4O)c3)cc2)C1 [Example 12, 4′-((S)-3-aminopyrrolidine-1-yl)-N—((R)-(5-fluoro-2-hydroxyphenyl)(1H-indole-2-yl)methyl)-[1,1′-biphenyl]-3-carboxamide]
pIC50 [1]: 6.74

CC(=O)N1CCN(c2ccc(-c3cccc(C(=O)N[C@@H](c4cc5ccccc5[nH]4)c4cc(F)ccc4O)c3)cc2)CC1 [Example 2, (R)-4′-(4-acetylpiperazine-1-yl)-N-((5-fluoro-2-hydroxyphenyl)(1H-indole-2-yl)methyl)-[1,1′-biphenyl]-3-carboxamide]
pIC50 [1]: 7.21

O=C(N[C@@H](c1cc2ccccc2[nH]1)c1cc(F)ccc1O)c1cccc(-c2ccc(N3CCNCC3)cc2)c1 [Example 1, (R)—N-((5-fluoro-2-hydroxyphenyl)(1H-indole-2-yl)methyl)-4′-(piperazine-1-yl)-[1,1′-biphenyl]-3-carboxamide]
pIC50 [1]: 7.34
